Assay results as given in PubChem BioAssay (NCI).
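Where inhibition never reached the appropriate level, the endpoint shown equals the highest concentration tested. Otherwise, values were interpolated linearly from a five-concentration, 48-hour dose response in 96-well plates. Abbreviation: GI50, concentration required for 50% inhibition of growth. TGI marks complete inhibition of growth.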

What was measured:
Assay in all cases: growth of human tumour cells (NCI), 48 h
HCT-15 colon = tested on: HCT-15 colon
SF-539 CNS = tested on: SF-539 CNS
DMS 273 small cell lung = tested on: DMS 273 small cell lung
SK-MEL-5 melanoma = tested on: SK-MEL-5 melanoma
SR leukemia = tested on: SR leukemia
KM20L2 colon = tested on: KM20L2 colon
SW-620 colon = tested on: SW-620 colon
M19-MEL melanoma = tested on: M19-MEL melanoma
KM12 colon = tested on: KM12 colon
DMS 114 small cell lung = tested on: DMS 114 small cell lung
HOP-18 NSCLC = tested on: HOP-18 NSCLC
T-47D breast = tested on: T-47D breast

SMILES	TGI (HCT-15 colon)	TGI (SF-539 CNS)	TGI (DMS 273 small cell lung)	TGI (SK-MEL-5 melanoma)	TGI (SR leukemia)	TGI (KM20L2 colon)	TGI (SW-620 colon)	TGI (M19-MEL melanoma)	TGI (KM12 colon)	TGI (DMS 114 small cell lung)	TGI (HOP-18 NSCLC)	GI50 (DMS 273 small cell lung)	GI50 (KM20L2 colon)	TGI (T-47D breast)
CC(=O)NC1=C(NCCC(C)C)C(=O)c2ccccc2C1=O	> 50 µM	> 50 µM	> 50 µM	> 50 µM	> 50 µM	> 50 µM	> 50 µM	> 50 µM	> 50 µM	–	–	–	–	–
C[n+]1c2ccccc2c(/C=N\NS(=O)(=O)c2ccc(O)c(C(=O)O)c2)c2ccccc21	> 100 µM	> 100 µM	> 100 µM	> 100 µM	–	> 100 µM	> 100 µM	> 100 µM	> 100 µM	> 100 µM	–	–	–	–
CNC(=O)C(C)C1CCC2(C)C=CC(=O)C(C)=C2C1O (stereo not given)	> 100 µM	> 100 µM	> 58.1 µM	> 60.1 µM	–	> 100 µM	> 100 µM	> 100 µM	> 100 µM	> 100 µM	–	–	–	–
O=C1CCC23CC(C=CC=C12)n1c(=O)n(-c2ccccc2)c(=O)n13 (stereo not given)	> 100 µM	> 100 µM	> 100 µM	> 100 µM	–	–	> 100 µM	> 100 µM	> 100 µM	> 100 µM	> 100 µM	–	–	–
CC(=O)Nc1ccc(-c2nnc(SCC(=O)Nc3ccc([N+](=O)[O-])cc3)o2)cc1	26 µM	39.2 µM	22.6 µM	25.9 µM	> 100 µM	28.4 µM	29.7 µM	26.3 µM	27.7 µM	14.6 µM	29.9 µM	–	–	–
Cc1cccc2c(=O)cc(-c3ccccc3)[nH]c12	> 100 µM	37.1 µM	> 100 µM	78.4 µM	> 100 µM	19.4 µM	> 100 µM	> 100 µM	–	> 100 µM	–	–	–	–
O=C1c2ccccc2C2C1N2C(=O)C(F)(F)F (stereo not given)	> 100 µM	> 100 µM	> 100 µM	> 100 µM	> 100 µM	> 100 µM	> 100 µM	> 100 µM	> 100 µM	> 100 µM	> 100 µM	–	–	–
N.N.N.N.O=[N+]([O-])[O-].[Co+3].[N-]=[N+]=[N-].[N-]=[N+]=[N-]	> 100 µM	> 100 µM	> 100 µM	> 100 µM	–	> 100 µM	> 100 µM	–	> 100 µM	–	–	> 100 µM	> 100 µM	–
CC(C)CCCCCCCCCCCCC(=O)NCC(=O)NC1C(C)OC(Nc2ncnc3c2ncn3C)C(O)C1O (stereo not given)	> 100 µM	13.1 µM	21.6 µM	> 100 µM	–	> 100 µM	> 100 µM	> 100 µM	> 100 µM	> 100 µM	> 30.1 µM	–	–	–
C[C@]12CC[C@H](O)CC1=CC[C@@H]1C2CC[C@]2(C)C(=O)N(N)C(=O)CC12 (stereo not given in full)	> 100 µM	> 100 µM	> 100 µM	> 100 µM	> 100 µM	> 100 µM	> 100 µM	> 100 µM	> 100 µM	–	> 100 µM	–	–	–
COc1cc([C@@H]2OCC3C(c4ccc5c(c4)OCO5)OCC32)cc(OC)c1OC (stereo not given in full)	> 100 µM	> 100 µM	> 100 µM	–	> 100 µM	> 100 µM	> 100 µM	> 100 µM	> 100 µM	> 100 µM	–	–	–	–
N#CN=C(N(Cc1ccccc1)Cc1ccccc1)N(Cc1ccccc1)Cc1ccccc1	> 100 µM	> 100 µM	–	–	–	> 100 µM	> 100 µM	> 100 µM	> 100 µM	> 100 µM	> 100 µM	–	–	–
Cc1ccccc1-n1c(=O)c2ncn(CCCl)c2n(-c2ccccc2C)c1=S	> 100 µM	> 100 µM	–	> 100 µM	> 100 µM	–	> 100 µM	–	> 100 µM	–	–	–	–	> 100 µM
Clc1cc(OC2C3CC4CC(C3)CC2C4)nc(Cl)n1 (stereo not given)	33.3 µM	38.8 µM	–	32.1 µM	11.7 µM	–	29 µM	–	39.1 µM	–	–	–	–	53.4 µM
N#CC1=C(N)N(c2ccccc2)C(c2ccco2)C1(C#N)C#N (stereo not given)	43.2 µM	41.2 µM	–	32.3 µM	51.1 µM	–	39.2 µM	–	37.2 µM	–	–	–	–	81 µM
CCOC(=O)C1=C(C)NC(=S)NC1c1ccccc1 (stereo not given)	> 56 µM	> 100 µM	> 100 µM	> 100 µM	50.2 µM	> 56.5 µM	–	> 58.9 µM	> 100 µM	> 57.2 µM	98.4 µM	–	–	–
Oc1cccc2c(Cl)ccnc12	29.7 µM	> 60.5 µM	–	14.8 µM	9.57 µM	–	29.3 µM	–	82.3 µM	–	–	–	–	48.2 µM
Nc1cccc2cc(Cl)cnc12	> 100 µM	> 100 µM	–	> 100 µM	> 100 µM	–	> 100 µM	–	> 100 µM	–	–	–	–	> 100 µM
O=[N+]([O-])C(=C1NCCN1)/C(Cl)=C(\Cl)Br	7.93 µM	> 100 µM	–	> 100 µM	55.4 µM	–	27.2 µM	–	> 100 µM	–	–	–	–	40.6 µM
[N-]=[N+]=Nc1cc(=O)oc2ccccc12	> 100 µM	> 100 µM	> 100 µM	> 100 µM	> 100 µM	–	> 100 µM	> 100 µM	> 100 µM	> 100 µM	> 100 µM	–	–	–
